From PubChem BioAssay AID1919013 (Molecular Pharmacology Branch, DTP, NCI, 2023)

System: LG0703-F498-PDC complex spheroid growth
Assay: Anticancer human tumor LG0703-F498-PDC patient-derived lung adenocarcinoma cell line growth inhibition [AhR]
Conditions: for IC50: curve of first compound; for viability, T/C: stronger effect = lower value
Text: Multicellular complex tumor spheroid response to aryl hydrocarbon receptor antagonists in combination with a variety of drugs and investigational agents in selected tumor cell lines
The current study was undertaken to assess response to aryl hydrocarbon receptor antagonists in combination with standard-of-care drugs and investigational agents in solid tumor complex spheroid models. Complex spheroids include a stromal component modeled by human endothelial cells (HUVEC) and fibroblasts modeled by human mesenchymal stem cells (MSCs). The concentration ranges selected for each drug and investigational agent were based upon clinically achievable concentrations if the clinical Cmax of the agent was known.
Compounds. The drugs and investigational agents: BAY 2416964 (NSC825713), GNF351 (NSC835774), CH-223191 (NSC835775), CPI-455 (NSC825282), aza-TdCyd (NSC777586), decitabine (NSC127716), belinostat (NSC758774), entinostat (NSC756642), pevonedistat (NSC761192), tazemetostat (NSC777109), talazoparib (NSC765396), olaparib (NSC753686), selinexor (NSC780203), nedisertib (M3814, NSC802822), bortezomib (NSC756655), venetoclax (NSC766270), doxorubicin (NSC123127), elimusertib (BAY189344, NSC800525), ceralasertib (AZD6738, NSC777638), TAK-243 (NSC785004), alisertib (NSC759677), etoposide (NSC141540), topotecan (NSC609699), eribulin (NSC707389), gemcitabine (NSC613327), carboplatin (NSC241240), cisplatin (NSC119875), and SN-38 (NSC673596) were obtained from the National Cancer Institute (NCI) Developmental Therapeutics Program Chemical Repository (32). The FDA-approved anticancer drug set is available from the Developmental Therapeutics Program at https://dtp.cancer.gov/organization/dscb/obtaining/available plates.htm. […] The stock solutions were prepared in dimethyl sulfoxide (DMSO, Sigma-Aldrich, St. Louis, MO, cat. D2650), except for the platinum compounds which were prepared in saline (Quality Biological, Gaithersburg, MD, cat. 114-055-101), at 800-fold the tested concentration and stored at -70 degrees C prior to their use. All drugs and investigational agents were tested over a range starting from a high concentration at or near the clinical Cmax and decreasing in half-log increments. If the clinical Cmax for an agent had not been determined, the highest concentration tested was 10 microM (Table 1).
Cell Culture. All cells were maintained in an incubator at 37 degrees C and 5% CO2 with 95% humidity. The PDC lines were cultured according to standard operating procedures established by the NCI PDMR (https://pdmr.cancer.gov). Briefly, all PDCs were thawed and cultured in Matrigel-coated flasks prepared with a working solution of 1X Ham's F-12 nutrient mix, without supplementation (Invitrogen, Waltham, MA, cat. 11765054), 100 U/mL penicillin-streptomycin (Invitrogen, cat. 15140122), and 2.5% Matrigel (Corning Inc., Corning, NY, cat. 354248) for the first three passages. All PDCs were cultured in complete DMEM/F-12 media containing advanced DMEM/F-12 (Invitrogen, cat. 12634028), 4.9% defined fetal bovine serum, heat inactivated (HyClone Laboratories Inc., Logan, UT, cat. SH30070.03HI), 389 ng/mL hydrocortisone (Sigma-Aldrich, cat. H4001), 9.7 ng/mL human EGF recombinant protein (Invitrogen, cat. PHG0313), 23.4 microg/mL adenine (Sigma-Aldrich, cat. A2786), 97.3 U/mL penicillin-streptomycin (Invitrogen, cat. 15140122), 1.9 mM L-glutamine (Invitrogen, cat. 25030081), and 9.7 microM Y-27632 dihydrochloride (Tocris Bioscience, Bristol, United Kingdom, cat. 1254). The PDCs were cultured in complete DMEM/F12 media without 10 microM Y-27632 dihydrochloride for at least two passages prior to the screen. The established cell lines NCI-H1341 and […] were cultured in DMEM/F-12, HEPES (Invitrogen, cat. 11330032), 5% defined fetal bovine serum (HyClone Laboratories Inc., cat. SH30070.03), ITS premix universal culture supplement [insulin (5 microg/mL), transferrin (5 microg/mL), and selenious acid (5 ng/mL)] […]

[1] = second compound 0.1 µM, first compound 0.0316 µM
[2] = second compound 0.1 µM, first compound 0.1 µM
[3] = second compound 0.1 µM, first compound 0.316 µM
[4] = second compound 0.1 µM, first compound 1 µM
[5] = second compound 0.1 µM, first compound 3.16 µM
[6] = second compound 0.1 µM, first compound 10 µM
[7] = second compound 0.316 µM, first compound 0.0316 µM
[8] = second compound 0.316 µM, first compound 0.1 µM
[9] = second compound 0.316 µM, first compound 0.316 µM
[10] = second compound 0.316 µM, first compound 1 µM
[11] = second compound 0.316 µM, first compound 3.16 µM
[12] = second compound 0.316 µM, first compound 10 µM
[13] = second compound 1 µM, first compound 0.0316 µM
[14] = second compound 1 µM, first compound 0.1 µM
[15] = second compound 1 µM, first compound 0.316 µM
[16] = second compound 1 µM, first compound 1 µM
[17] = second compound 1 µM, first compound 3.16 µM
[18] = second compound 1 µM, first compound 10 µM
[19] = second compound 3.16 µM, first compound 0.0316 µM
[20] = second compound 3.16 µM, first compound 0.1 µM
[21] = second compound 3.16 µM, first compound 0.316 µM
[22] = second compound 3.16 µM, first compound 1 µM
[23] = second compound 3.16 µM, first compound 3.16 µM
[24] = second compound 3.16 µM, first compound 10 µM
[25] = second compound 10 µM, first compound 0.0316 µM
[26] = second compound 10 µM, first compound 0.1 µM
[27] = second compound 10 µM, first compound 0.316 µM
[28] = second compound 10 µM, first compound 1 µM
[29] = second compound 10 µM, first compound 3.16 µM
[30] = second compound 10 µM, first compound 10 µM
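Further: luminescence taken as a proxy for viable cell amount.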
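Wherever viability, T/C is given: percent of DMSO vehicle control where 100% means growth equal to vehicle.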

CCc1c2c(nc3ccc(O)cc13)-c1cc3c(c(=O)n1C2)COC(=O)[C@]3(O)CC + CC(CO)NC(=O)c1cc(-c2ccc(Cl)cc2)nn(-c2cnn(C)c2)c1=O
IC50 (second compound 0.1 µM): 47.4 nM
IC50 (second compound 0.316 µM): 24.4 nM
IC50 (second compound 1 µM): 28.3 nM
IC50 (second compound 3.16 µM): 19.8 nM
IC50 (second compound 10 µM): 15.7 nM
viability, T/C (second compound 0.1 µM, first compound 0.000949 µM): 96.2%
viability, T/C (second compound 0.1 µM, first compound 0.003 µM): 84.6%
viability, T/C (second compound 0.1 µM, first compound 0.00949 µM): 69.7%
viability, T/C (second compound 0.1 µM, first compound 0.03 µM): 54%
viability, T/C (second compound 0.1 µM, first compound 0.0949 µM): 44%
viability, T/C (second compound 0.1 µM, first compound 0.3 µM): 26.3%
viability, T/C (second compound 0.316 µM, first compound 0.000949 µM): 82.8%
viability, T/C (second compound 0.316 µM, first compound 0.003 µM): 94.1%
viability, T/C (second compound 0.316 µM, first compound 0.00949 µM): 62.5%
viability, T/C (second compound 0.316 µM, first compound 0.03 µM): 46.9%
viability, T/C (second compound 0.316 µM, first compound 0.0949 µM): 36.9%
viability, T/C (second compound 0.316 µM, first compound 0.3 µM): 24.3%
viability, T/C (second compound 1 µM, first compound 0.000949 µM): 79%
viability, T/C (second compound 1 µM, first compound 0.003 µM): 75.6%
viability, T/C (second compound 1 µM, first compound 0.00949 µM): 67.8%
viability, T/C (second compound 1 µM, first compound 0.03 µM): 48.9%
viability, T/C (second compound 1 µM, first compound 0.0949 µM): 32.6%
viability, T/C (second compound 1 µM, first compound 0.3 µM): 26%
viability, T/C (second compound 3.16 µM, first compound 0.000949 µM): 72.7%
viability, T/C (second compound 3.16 µM, first compound 0.003 µM): 73.2%
viability, T/C (second compound 3.16 µM, first compound 0.00949 µM): 58.5%
viability, T/C (second compound 3.16 µM, first compound 0.03 µM): 45.6%
viability, T/C (second compound 3.16 µM, first compound 0.0949 µM): 27.8%
viability, T/C (second compound 3.16 µM, first compound 0.3 µM): 22.5%
viability, T/C (second compound 10 µM, first compound 0.000949 µM): 72%
viability, T/C (second compound 10 µM, first compound 0.003 µM): 74%
viability, T/C (second compound 10 µM, first compound 0.00949 µM): 56.5%
viability, T/C (second compound 10 µM, first compound 0.03 µM): 40.5%
viability, T/C (second compound 10 µM, first compound 0.0949 µM): 26.4%
viability, T/C (second compound 10 µM, first compound 0.3 µM): 24.5%

Nc1ccn(C2OC(CO)C(O)C2(F)F)c(=O)n1 (stereo not given) + CC(CO)NC(=O)c1cc(-c2ccc(Cl)cc2)nn(-c2cnn(C)c2)c1=O
IC50 (second compound 0.1 µM): < 31.6 nM
IC50 (second compound 0.316 µM): < 31.6 nM
IC50 (second compound 1 µM): < 31.6 nM
IC50 (second compound 3.16 µM): < 31.6 nM
IC50 (second compound 10 µM): < 31.6 nM
viability, T/C [1]: 43.6%
viability, T/C [2]: 43.4%
viability, T/C [3]: 39.1%
viability, T/C [4]: 38.8%
viability, T/C [5]: 35.7%
viability, T/C [6]: 26.6%
viability, T/C [7]: 43.3%
viability, T/C [8]: 41.7%
viability, T/C [9]: 41.1%
viability, T/C [10]: 38.3%
viability, T/C [11]: 28.4%
viability, T/C [12]: 27.3%
viability, T/C [13]: 46.7%
viability, T/C [14]: 47.5%
viability, T/C [15]: 39.9%
viability, T/C [16]: 37.9%
viability, T/C [17]: 31%
viability, T/C [18]: 27.1%
viability, T/C [19]: 42.8%
viability, T/C [20]: 41.9%
viability, T/C [21]: 41.9%
viability, T/C [22]: 39.2%
viability, T/C [23]: 29.2%
viability, T/C [24]: 23.9%
viability, T/C [25]: 40%
viability, T/C [26]: 40.5%
viability, T/C [27]: 45%
viability, T/C [28]: 34.5%
viability, T/C [29]: 27.2%
viability, T/C [30]: 23.7%

O=C(c1cc(Cc2n[nH]c(=O)c3ccccc23)ccc1F)N1CCN(C(=O)C2CC2)CC1 + CC(CO)NC(=O)c1cc(-c2ccc(Cl)cc2)nn(-c2cnn(C)c2)c1=O
IC50 (second compound 0.1 µM): > 10000 nM
IC50 (second compound 0.316 µM): > 10000 nM
IC50 (second compound 1 µM): > 10000 nM
IC50 (second compound 3.16 µM): > 10000 nM
IC50 (second compound 10 µM): > 10000 nM
viability, T/C [1]: 95.2%
viability, T/C [2]: 99.8%
viability, T/C [3]: 94.8%
viability, T/C [4]: 86.6%
viability, T/C [5]: 95.3%
viability, T/C [6]: 70.4%
viability, T/C [7]: 96.2%
viability, T/C [8]: 98.4%
viability, T/C [9]: 87.5%
viability, T/C [10]: 82.4%
viability, T/C [11]: 88.8%
viability, T/C [12]: 83.1%
viability, T/C [13]: 93%
viability, T/C [14]: 108%
viability, T/C [15]: 95.7%
viability, T/C [16]: 74.4%
viability, T/C [17]: 86.1%
viability, T/C [18]: 81%
viability, T/C [19]: 89.3%
viability, T/C [20]: 91%
viability, T/C [21]: 94.5%
viability, T/C [22]: 74.1%
viability, T/C [23]: 79%
viability, T/C [24]: 72%
viability, T/C [25]: 77.4%
viability, T/C [26]: 78.6%
viability, T/C [27]: 82.7%
viability, T/C [28]: 80%
viability, T/C [29]: 81.8%
viability, T/C [30]: 79.8%
